# In patent US20190307771A1, “METHODS AND COMPOSITIONS FOR THE TREATMENT OF CANCER AND METABOLIC DISEASES” (THE REGENTS OF THE UNIVERSITY OF CALIFORNIA, priority 2016, published 2019):
# Entries after “also recorded” stand apart in the source; their conditions may differ.
# Key:
# [1] = cited from earlier work
# [2] = system: liver cancer cells (Huh7, Hep3B, HepG2); conditions: cited from earlier work; for Apoptosis of liver cancer cells: published studies
# [3] = system: liver cancer cells (Huh7, Hep3B, HepG2); test: Apoptosis of liver cancer cells; conditions: prevented by NUR77 siRNA
# RARB and NUR77 genes = test: ChIP-qPCR: HDAC recruitment and H3K9 acetylation at RARB and NUR77 genes in HCT116 cells; assay type: cell-based; conditions: RA 10 μM, butyrate 5 mM, SAHA 5 μM; for H3K9 acetylation of NUR77 and RARβ genes (ChIP-qPCR) / Recruitment of HDAC1, HDAC4, and SIRT1 to the regulatory region of NUR77 and RARβ (ChIP-qPCR): 24 hours
# Method: Cell lysates were used for ChIP with antibodies specific for HDAC1, HDAC4, SIRT1, or acetylated H3K9, followed by qPCR using primers specific for the RARB and NUR77 genes. DMSO treated cells and IP using IgG were included as negative controls. […]inding was expressed relative to the IgG negative controls.
# (§1) Chromatin immunoprecipitation (ChIP)-qPCR ChIP-qPCR was performed as described previously^21. Briefly, chromatin lysate was precleared before incubation with an anti-H3K9AC antibody (Millipore. Billerica, Mass.), anti-HDAC1 and anti-HDAC4 (Cell signaling technology, Beverly, Mass.) or anti-SIRT1 antibody (Santa Cruz Biotechnology, Santa Cruz, Calif.). IgG (Santa Cruz Biotechnology, Santa Cruz, Calif.) and RNA Polymerase II antibody (Millipore, Billerica, Mass.) were used as negative and positive controls, respectively. Samples were incubated with Dynase beads at 4° C. overnight followed by de-crosslinking and purification. DNA fragments generated served as templates for qPCR using Power SYBR1 Green PCR Master Mix.
# miR-22 = miR-22 expression in HCT116 cells (qRT-PCR); assay type: cell-based; conditions: 24 hours, RA 10 μM, butyrate 5 mM, propionate 10 mM, valerate 10 mM, SAHA 5 μM
# Method: To study the effect of RA and HDAC inhibitors on miR-22 expression, HCT116 cells were treated with RA, butyrate, propionate, valerate, and SAHA. The SCFA concentrations used were within physiologic ranges^35.
# (§2) Total RNA was extracted with TRIzol Reagent (Invitrogen, Carlsbad, Calif.), and cDNA was generated using High Capacity RNA-to-cDNA Kit (Applied Biosystems, Carlsbad, Calif.). qRT-PCR was performed on ABI 7900HT Fast Real time PCR system using Power SYBR® Green PCR Master Mix (Applied Biosystems, Carlsbad, Calif.).
# NUR77 = test: ChIP-qPCR and RT-PCR: NUR77 binding to BRE and CCND2 and their mRNA; assay type: cell-based; conditions: HCT116 cells
# Method: (§3) NUR77 and RARβ acetylation status was also studied because protein acetylation alters nuclear receptor activity^37. […] To study the effect of RA/butyrate in modulating NUR77 and RARβ transcriptional activity, ChIP-qPCR and RT-PCR were performed to determine receptor binding to transcriptional regulatory regions and mRNA levels of downstream targets, respectively.
# as §1
# NUR77 and RARβ [4] = test: Immunoprecipitation/Western blot: protein acetylation of NUR77 and RARβ; assay type: cell-based; conditions: HCT116 cells; IP with anti-NUR77 or anti-RARβ, anti-acetyl lysine blot
# Excerpt: FIG. 12A depicts the expression levels of proteins that were extracted from HCT116 cells and immunoprecipitated by anti-NUR77 and RARβ antibodies or IgG, followed by Western blot using an anti-acetyl lysine antibody. […] The mRNA levels of NUR77 target genes BRE as well as CCND2 and RARβ target genes RARβ and CYP26A1 in HCT116 cells are shown in FIG. 12C.
# as §3
# Western blot and immunoprecipitation were performed as described previously^22. Specific antibodies used included anti-NUR77, RARβ, SIRT1, β-actin, and IgG (Santa Cruz Biotechnology, Santa Cruz, Calif.), phospho-JNK1/2, total JNK1/2, cleaved caspase3, HDAC1 and HDAC4 (Cell Signaling Technology, Beverly, Mass.), and CCNA2 (Novus Biologicals, Littleton, Colo.). To detect protein acetylation of NUR77 and RARβ, cell lysates (500 μg) were incubated with anti-NUR77, RARβ, or IgG antibody (1 μg), precipitated by adding Dynabeads (30 μl, Life Technologies, Carlsbad, Calif.), and probed with anti-Acetyl-lysine antibody (Cell Signaling Technology, Beverly, Mass.). To study the interaction between RARβ and NUR77, whole-cell lysates were precipitated with anti-RARβ or NUR77 antibody followed by Western blot using anti-NUR77 or RARβ antibody.
# [5] = system: HDAC1, HDAC4, SIRT1, cyclin A2 (CCNA2); test: Western blot of protein deacetylases and cyclin A2 in HCT116 cells; assay type: cell-based; conditions: 24 hours, RA 10 μM, butyrate 5 mM, SAHA 5 μM
# NUR77 and RARβ [6] = test: Induction and localization of NUR77 and RARβ in HCT116 cells; assay type: cell-based; conditions: 48 hours, RA 10 μM, butyrate 5 mM, SAHA 5 μM, EGF 32 nM
# Method: Proteins were immunoprecipitated by anti-NUR77 or anti-RARβ antibodies, or IgG, followed by Western blot using anti-RARβ or anti-NUR77 antibodies.
# To study the effect of miR-22 in induction of cytosolic NUR77 by RA/butyrate, adenoviral-delivery of miR-22 inhibitors tagged with green fluorescence (adeno-miR-22 inhibitor-GFP, Applied Biological Materials Inc, Richond, BC) were used to infect HCT116 cells. At 48 hours post adenoviral infection, cells were treated with RA (10 μM) plus butyrate (5 mM) or DMSO for 24 hours. […] Cells were mounted in ProLong® Gold Antifade Reagent with DAPI (4′,6-diamidino-2-phenylindole, Life Technologies, Carlsbad, Calif.) and imaged under Keyence BZ-9000 microscope.
# [7] = system: HCT116 colon cancer cells; test: MTT cell viability assay in HCT116 cells; assay type: cell-based; conditions: RA 10 μM, butyrate 5 mM, SAHA 5 μM; for Cell viability (MTT assay): 24 hours; for Cell viability: 48 hours, propionate 10 mM, valerate 10 mM, vs. DMSO
# Method: Cell viability was monitored by MTT assay.
# HCT116 cells (American Type Culture Collection) were maintained in McCoy's 5a medium from Gibco (Life Technologies, Carlsbad, Calif.) with 10% FBS. Cells were plated (1×10^6 cells per 60-mm dish, 2×10^5 cells per 6-well plates, and 1×10^5 cells per 24-well plates) overnight prior to treatment or transfection.
# Cells were stained with 3-(4,5-dimethylthiazol-2-O-2,5-diphenyltetrazolium bromide (MTT, Sigma-Aldrich, St. Louis, Mo.) and measured at 570 nm with Microplate Reader (Biotek, Winooski, Vt.).
# [8] = system: retinoic acid receptor beta (RARβ); test: RARB expression in HCT116 cells (qRT-PCR); assay type: cell-based; conditions: 24 hours, RA 10 μM, butyrate 5 mM, SAHA 5 μM
# Method: as §2
# RARβ = test: ChIP-qPCR: RARβ binding to DR5 motif upstream of RARβ and CYP26A1 genes; assay type: cell-based; conditions: HCT116 cells
# Method: as §3, §1
# [9] = system: Class I (HDAC1, 2, 3, and 8) and Class IIa (HDAC4, 5, 7, and 9); conditions: cited from earlier work
# [10] = system: Gpr41, Gpr43, Gpr109a, Pgc1α, Pepck, Fas; test: Ileal and hepatic mRNA levels in mice after oral gavage; assay type: in vivo, C57BL/6 mice; conditions: RA 15 mg/kg and/or butyrate 500 mg/kg, oral gavage every other day for one week
# DLD-1 colon cancer cells = test: Cell viability of DLD-1 cells; conditions: 48 hours, RA 10 μM, butyrate 5 mM, propionate 10 mM, valerate 10 mM, SAHA 5 μM, vs. DMSO
# Method: HCT116 and DLD-1 colon cancer cells were treated with dimethyl sulfoxide (DMSO) only (as a negative control), RA (10 μM), Fenretinide (10 μM), or an HDAC inhibitor. […] SCFAs were selected from butyrate (5 mM), propionate (10 mM), and valerate (10 mM). Some HCT116 and DLD-1 cells were treated separately with a combination of RA and one of the SCFAs. Cells were treated for 48 hours before viability was assessed.
# [11] = cited from earlier work; remark: listed apart in the source
# primary liver cancer = conditions: cited from earlier work
smiles,measurement,setting,value
"CC1=C(/C=C/C(C)=C/C=C/C(C)=C/C(=O)Nc2ccc(O)cc2)C(C)(C)CCC1 [fenretinide, N-(4-hydroxyphenyl) retinamide]",Tumor response,"[1]; NCI case report, advanced cutaneous T-cell lymphoma patient",tumor response
same,Stabilization of the disease,"[1]; Phase II, small cell lung cancer",24 % of the patients
same,Tolerability,"[1]; breast cancer chemoprevention study (3000 patients, 5 year), Phase II small cell lung cancer",well tolerated in humans; also recorded: well tolerated in patients with small cell lung cancer
same,Apoptotic effect in HepG2,[2]; HepG2 vs. Huh7 and Hep3B,resistant to the apoptotic effect
same,Apoptosis of liver cancer cells,[2],effectively induces apoptosis of liver cancer cells; also recorded: much better apoptosis inducer than RA
same,Apoptosis of Huh7 cells,[3],induced apoptosis of Huh7 cells
O=C(CCCCCN1C(=O)c2cccc3cccc(c23)C1=O)NO [Scriptaid],Apoptosis of Huh7 cells,[3],induced apoptosis of Huh7 cells
"O=C(CCCCCCC(=O)Nc1ccccc1)NO [SAHA, suberanilohydroxamic acid]",H3K9 acetylation of NUR77 and RARβ genes (ChIP-qPCR),RARB and NUR77 genes,increased H3K9 acetylation
same,"Recruitment of HDAC1, HDAC4, and SIRT1 to the regulatory region of NUR77 and RARβ (ChIP-qPCR)",RARB and NUR77 genes,"decreased recruitment of HDAC1, HDAC4, and SIRT1"
same,Histone acetylation (H3K9Ac) in the gene encoding RARβ (ChIP-qPCR),RARB and NUR77 genes,increased histone acetylation
same,Recruitment of HDAC4 and SIRT1 to the RARB gene (ChIP-qPCR),RARB and NUR77 genes,reduced the recruitment of HDAC4 and SIRT1
same,miR-22 expression level,miR-22,upregulated; also recorded: could induce miR-22; also recorded: induced; also recorded: increased miR-22 level
same,NUR77 binding to BRE and CCND2 promoter regions and their mRNA levels (NUR77 transcriptional activity),NUR77,reduced NUR77 binding
same,Acetylated NUR77 and RARβ,NUR77 and RARβ [4],increased acetylated NUR77 and RARβ
same,"Protein levels of HDAC1, HDAC4, SIRT1, and cyclin A2 (CCNA2)",[5],"reduced HDAC1, HDAC4, SIRT1, and CCNA2 protein levels"
same,Induction and localization of NUR77 and RARβ (immunostaining),NUR77 and RARβ [6],markedly induced NUR77 and RARβ
same,Cell viability (MTT assay),[7],reduced cell viability
same,Cell viability,[7],significantly reduced cell viability; also recorded: Markedly reduced cell viability
same,RARB (RARβ) expression / transcription,[8],upregulated
same,Increase of RARβ binding to the DR5 motif upstream of RARβ and CYP26A1 genes,RARβ,2.5 folds
CC(/C=C/C(=O)NO)=C\[C@@H](C)C(=O)c1ccc(N(C)C)cc1 [trichostatin A],Inhibition of HDAC classes,[9],"inhibit Class I (HDAC1, 2, 3, and 8) and Class IIa (HDAC4, 5, 7, and 9)"
"CCCC(=O)[O-].[Na+] [butyrate, sodium butyrate]",H3K9 acetylation of NUR77 and RARβ genes (ChIP-qPCR),RARB and NUR77 genes,increased H3K9 acetylation
same,"Recruitment of HDAC1, HDAC4, and SIRT1 to the regulatory region of NUR77 and RARβ (ChIP-qPCR)",RARB and NUR77 genes,"decreased recruitment of HDAC1, HDAC4, and SIRT1"
same,Histone acetylation (H3K9Ac) in the gene encoding RARβ (ChIP-qPCR),RARB and NUR77 genes,increased histone acetylation
same,Recruitment of HDAC4 and SIRT1 to the RARB gene (ChIP-qPCR),RARB and NUR77 genes,reduced the recruitment of HDAC4 and SIRT1; also recorded: decreased the recruitment of HDAC4 and SIRT1
same,miR-22 expression level,miR-22,upregulated; also recorded: induce miR-22; also recorded: induced; also recorded: increased miR-22 level
same,NUR77 binding to BRE and CCND2 promoter regions and their mRNA levels (NUR77 transcriptional activity),NUR77,reduced NUR77 binding
same,Acetylated NUR77 and RARβ,NUR77 and RARβ [4],only increased acetylated NUR77
same,"Protein levels of HDAC1, HDAC4, SIRT1, and cyclin A2 (CCNA2)",[5],"reduced HDAC1, HDAC4, SIRT1, and CCNA2 protein levels"
same,Induction and localization of NUR77 and RARβ (immunostaining),NUR77 and RARβ [6],markedly induced NUR77 and RARβ
same,Inhibition of HDAC classes,[9],"inhibit Class I (HDAC1, 2, 3, and 8) and Class IIa (HDAC4, 5, 7, and 9)"
same,Expression of Gpr41 and Gpr43,[10],could induce the expression
same,Expression of Gpr109a,[10],induced Gpr109a
same,Cell viability (MTT assay),[7],reduced cell viability
same,Cell viability,[7],Markedly reduced cell viability
same,RARB (RARβ) expression / transcription,[8],upregulated
same,Increase of RARβ binding to the DR5 motif upstream of RARβ and CYP26A1 genes,RARβ,4 folds
"CC1=C(/C=C/C(C)=C/C=C/C(C)=C/C(=O)O)C(C)(C)CCC1 [RA, all-trans retinoic acid]",Recruitment of HDAC4 and SIRT1 to the RARB gene (ChIP-qPCR),RARB and NUR77 genes,not
same,Cell viability,DLD-1 colon cancer cells,reduced cell viability
same,miR-22 expression level,miR-22,upregulated; also recorded: induced miR-22 expression; also recorded: could induce miR-22; also recorded: increased miR-22 level
same,NUR77 binding to BRE and CCND2 promoter regions and their mRNA levels (NUR77 transcriptional activity),NUR77,not RA alone
same,"Microbiota phenotype, metabolism and liver regeneration",[11]; RA prior to liver resection,"lean microbiota phenotype, improved metabolism as well as accelerated liver regeneration"
same,Ratio of Firmicutes to Bacteroidetes,[11]; one day after liver resection,reduced ratio of Firmicutes to Bacteroidetes
same,"Protein levels of HDAC1, HDAC4, SIRT1, and cyclin A2 (CCNA2)",[5],"reduced HDAC1, HDAC4, SIRT1, and CCNA2 protein levels"
same,Induction and localization of NUR77 and RARβ (immunostaining),NUR77 and RARβ [6],modestly induced both receptors in the nucleus
same,Apoptosis of liver cancer cells,[2],not as effective as fenretinide in inducing apoptosis
same,Expression of Gpr41 and Gpr43,[10],could induce the expression
same,RARB (RARβ) expression / transcription,[8],upregulated
CNC(=O)c1cc(Oc2ccc(NC(=O)Nc3ccc(Cl)c(C(F)(F)F)c3)cc2)ccn1 [sorafenib],Increase of survival,primary liver cancer,6 months
